The source made the active and inactive calls. The rule behind the calls is not given here.

The target in this assay is Neuropeptides B/W receptor type 1 (Homo sapiens) (UniProt P48145). Kind of assay: human NPBW1 receptor blockade – cell-based, fluorescence, percent inhibition, late-stage follow-up (AID 588562). The settings on record: GPR7-expressing cells, fluorescence antagonist assay; at 20 µM; active compounds read high.
Chain of Neuropeptides B/W receptor type 1 (Homo sapiens) (P48145 whole entry, looked up): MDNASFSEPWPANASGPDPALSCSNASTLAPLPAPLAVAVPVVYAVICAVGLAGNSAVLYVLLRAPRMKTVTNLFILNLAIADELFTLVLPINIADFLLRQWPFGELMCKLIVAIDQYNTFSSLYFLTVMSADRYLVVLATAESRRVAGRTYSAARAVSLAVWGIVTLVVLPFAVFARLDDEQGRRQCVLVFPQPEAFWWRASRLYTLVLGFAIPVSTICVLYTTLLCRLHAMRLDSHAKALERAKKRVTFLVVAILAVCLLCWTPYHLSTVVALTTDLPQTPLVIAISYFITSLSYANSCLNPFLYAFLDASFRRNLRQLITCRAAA

In the case of `COc1ccc(Oc2c(C(=O)N(C)C)cnn(-c3ccc(C(C)C)cc3)c2=O)cc1`, the inhibition was 7% (inactive). Turning to `COc1ccc(Oc2c(C(=O)O)cnn(-c3ccc(C(C)C)cc3)c2=O)cc1`, the inhibition is -16% (inactive).

In the case of `COc1ccc(Oc2c(N3CCN(C)CC3)cnn(-c3ccc(C(C)C)cc3)c2=O)cc1`, the inhibition is -25% (inactive). For the compound `CC(C)c1ccc(-n2ncc(Cl)c(Oc3cc(C(C)(C)C)cc(C(C)(C)C)c3)c2=O)cc1`, the inhibition is -3% (inactive). Consider `COc1ccc(Oc2c(-n3nnc(C)c3C)cnn(-c3ccc(C(C)C)cc3)c2=O)cc1`, for which the inhibition was 15% (inactive). Consider `COc1ccc(Oc2c(N)cnn(-c3ccc(C(C)C)cc3)c2=O)cc1`, for which the inhibition was -10% (inactive).

Consider `COc1ccc(Oc2c(N3CCOCC3)cnn(-c3ccc(C(C)C)cc3)c2=O)cc1`, for which the inhibition was 37% (inactive). With `CC(C)c1ccc(-n2ncc(NCc3ccccc3)c(Cl)c2=O)cc1`, the inhibition was -18% (inactive). For `COc1ccc(Oc2c(N)cnn(-c3ccc(C(F)(F)F)cc3)c2=O)cc1`, the inhibition was 31% (inactive). On to `COc1ccc(Oc2c(NC(C)=O)cnn(-c3ccc(C(C)C)cc3)c2=O)cc1`, for which the inhibition is 15% (inactive). As for `CCOc1ccc(Oc2c(Cl)cnn(-c3ccc(C(C)C)cc3)c2=O)cc1`, the inhibition is 46% (inactive). The same measure for `COc1ccc(Oc2c(N3CCN(C(=O)OC(C)(C)C)CC3)cnn(-c3ccc(C(C)C)cc3)c2=O)cc1`: 15% (inactive); for `CC(C)c1ccc(-n2ncc(Cl)c(Oc3ccc(C(F)(F)F)cc3)c2=O)cc1`: 55% (inactive).

In the case of `COc1ccc(Oc2ccnn(-c3ccc(C)cc3)c2=O)cc1`, the inhibition is 24% (inactive). With `COc1ccc(COc2c(Cl)cnn(-c3ccc(C(C)C)cc3)c2=O)cc1`, the inhibition was 27% (inactive).

The values above are taken from PubChem BioAssay AID588562 (The Scripps Research Institute Molecular Screening Center, 2011).
